Counter-ions that a name gives are not always drawn.
Experiments:
Vero E6 [1] = experiment: inhibition of SARS-CoV-2-induced cytopathic effect relative to cell and virus controls; higher = more antiviral protection; conditions: 72 h, virus: SARS-CoV-2 propagated original strain, 100 TCID50, assay detail: infected
Method: (§1)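 Vero E6 C1008 cells (2e4 cells/well) were treated with a 3-fold dilution series of each drug (monotherapy), with or without live SARS-CoV-2 (propagated original strain, 100 TCID50). After 72 h at 37 °C, viability was read with Viral ToxGlo (ATP luminescence). %Inhibition of virus-induced CPE and %Cytotoxicity (uninfected) were normalised to cell and virus controls. Triplicates. The paper excluded %Inhibition points with >25% cytotoxicity from its curve fits.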

Vero E6 [2] = experiment: cytotoxicity relative to untreated cell control; higher = more toxic; conditions: 72 h, assay detail: uninfected
Method: as §1

O=c1c2ccccc2[se]n1-c1ccccc1 [ebselen]
Conditions | cytotoxicity, Vero E6 [2] [%] | inhibition of SARS-CoV-2-induced cytopathic effect, Vero E6 [1] [%]
56.45 pM | -9.38 | 0.954
0.000169351 µM | -15.3 | -0.438
0.000508053 µM | -9.41 | -0.0732
0.00152416 µM | -4.85 | -0.949
0.00457247 µM | -3.63 | -0.344
0.0137174 µM | -5.61 | -0.6
0.0411523 µM | -10.3 | -1.57
0.123457 µM | -6.66 | 0.817
0.37037 µM | -2.52 | 0.828
1.11111 µM | -1.45 | 1.82
3.33333 µM | 2.92 | 6.69
10 µM | 17.6 | 71.3

Cc1ccc(NC(=O)c2ccc(CN3CCN(C)CC3)cc2)cc1Nc1nccc(-c2cccnc2)n1 [imatinib mesylate]
Conditions | cytotoxicity, Vero E6 [2] [%] | inhibition of SARS-CoV-2-induced cytopathic effect, Vero E6 [1] [%]
0.000564503 µM | 4.59 | 0.0871
0.00169351 µM | -0.227 | -0.274
0.00508053 µM | -4.57 | -1.02
0.0152416 µM | -8.01 | -0.646
0.0457247 µM | -4.41 | -1.84
0.137174 µM | -4.39 | -1.94
0.411523 µM | -6.59 | -2
1.23457 µM | -4.79 | 1.61
3.7037 µM | -6.93 | 18
11.1111 µM | 9.9 | 102
33.3333 µM | 61.8 | 48.6
100 µM | 99.785 | -17.3

Cc1cccc(C)c1OCC(=O)N[C@@H](Cc1ccccc1)[C@@H](O)C[C@H](Cc1ccccc1)NC(=O)[C@H](C(C)C)N1CCCNC1=O [lopinavir]
Conditions | cytotoxicity, Vero E6 [2] [%] | inhibition of SARS-CoV-2-induced cytopathic effect, Vero E6 [1] [%]
0.00112901 µM | 8.74 | 2.06
0.00338702 µM | 6.74 | 1.04
0.0101611 µM | -8.25 | 1.48
0.0304832 µM | -3.94 | 0.483
0.0914495 µM | -7.05 | 1.04
0.274348 µM | -5.02 | 2.11
0.823045 µM | -7.06 | 1.91
2.46914 µM | -5.88 | 1.69
7.40741 µM | -25.7 | 2.75
22.2222 µM | 25.9 | 72.7
66.6667 µM | 99.066 | -14.47
200 µM | 99.504 | -14.97
